The source of these data is PubChem BioAssay AID330 (DTP/NCI, 2004).

The test concerns P388 leukemia ip, CD2F1 mice, survival T/C. The test can be described thus: NCI In Vivo Anticancer Drug Screen. Data for tumor model P388 Leukemia (intraperitoneal) in CD2F1 (CDF1) mice. The note with it: endpoint: median survival time, higher = longer survival. A digest of the protocol:
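Mice carrying the transplanted tumor received test compound or vehicle. Survival was recorded in each group, and the value is the treated-group measurement divided by that of the vehicle-treated control group.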

Setting [1] is: dose: 50.0 mg/kg/injection, schedule: Q01DX005 (ip), vehicle: Klucel (hydroxypropylcellulose) (HPC).
[2] abbreviates: dose: 100.0 mg/kg/injection, schedule: Q01DX005 (ip), vehicle: Klucel (hydroxypropylcellulose) (HPC).
[3] abbreviates: dose: 200.0 mg/kg/injection, schedule: Q01DX005 (ip), vehicle: Klucel (hydroxypropylcellulose) (HPC).
Setting [4] is: dose: 60.0 mg/kg/injection, schedule: Q01DX005 (ip), vehicle: saline with Tween-80.
The mark [5] stands for this setting: dose: 240.0 mg/kg/injection, schedule: Q01DX005 (ip), vehicle: saline with Tween-80.
Setting [6] is: dose: 120.0 mg/kg/injection, schedule: Q01DX005 (ip), vehicle: saline with Tween-80.
The mark [7] stands for this setting: dose: 50.0 mg/kg/injection, schedule: Q01DX009 (ip), vehicle: saline.
Setting [8] is: dose: 100.0 mg/kg/injection, schedule: Q01DX009 (ip), vehicle: saline.
[9] abbreviates: dose: 200.0 mg/kg/injection, schedule: Q01DX009 (ip), vehicle: saline.

Inconclusive results and toxic doses are left out.

With `CN(CCO)C1=CC(=O)C(N2c3ccccc3Nc3cc(O)c(N(C)CCO)cc32)=CC1=O`, the T/C is, setting by setting: (dose: 50.0 mg/kg/injection, schedule: Q01DX009 (ip), vehicle: suspension in saline) 101 % of control; (dose: 100.0 mg/kg/injection, schedule: Q01DX009 (ip), vehicle: suspension in saline) 99 % of control; (dose: 200.0 mg/kg/injection, schedule: Q01DX009 (ip), vehicle: suspension in saline) 105 % of control.

Consider `O=NNc1ccc(Br)cn1`, for which the T/C is 100 % of control (dose: 1.5 mg/kg/injection, schedule: Q01DX008 (ip), vehicle: water); 115 % of control (dose: 1.56 mg/kg/injection, schedule: Q01DX009 (ip), vehicle: water); 154 % of control (dose: 6.25 mg/kg/injection, schedule: Q01DX008 (ip), vehicle: water); 184 % of control (dose: 12.5 mg/kg/injection, schedule: Q01DX009 (ip), vehicle: water); 181 % of control (dose: 25.0 mg/kg/injection, schedule: Q01DX008 (ip), vehicle: water).

`CC(C)(C)OOC(=O)c1ccc(Cl)cc1`: the T/C (dose: 100.0 mg/kg/injection, schedule: Q04DX002 (ip), vehicle: saline with Tween-80) is 96 % of control; the T/C (dose: 200.0 mg/kg/injection, schedule: Q04DX002 (ip), vehicle: saline with Tween-80) is 95 % of control; the T/C (dose: 400.0 mg/kg/injection, schedule: Q04DX002 (ip), vehicle: saline with Tween-80) was 101 % of control.

Turning to `O=C1C=C(NCc2nc3ccccc3[nH]2)C(c2ccccc2)N1c1ccccc1` (stereo unspecified), the T/C is 100 % of control under setting [1], 96 % of control under setting [2] and 93 % of control under setting [3].

In the case of `COc1ccc(Cl)c2c(N=Nc3ccccc3[N+](=O)[O-])c(O)[nH]c12`, the T/C is, setting by setting: (dose: 15.0 mg/kg/injection, schedule: Q01DX005 (ip), vehicle: saline with Tween-80) 103 % of control; (dose: 30.0 mg/kg/injection, schedule: Q01DX005 (ip), vehicle: saline with Tween-80) 99 % of control; under setting [4], 95 % of control; under setting [5], 87 % of control.

Take `N#CC1(NC(=O)C(Cl)Cl)c2ccccc2-c2ccccc21`: the T/C runs as follows: under setting [4], 100 % of control; under setting [6], 93 % of control.

For `CC(=O)NNC(=O)c1ccccn1`, the T/C by setting is: (dose: 12.5 mg/kg/injection, schedule: Q01DX009 (ip), vehicle: saline) 90 % of control; (dose: 25.0 mg/kg/injection, schedule: Q01DX009 (ip), vehicle: saline) 92 % of control; under setting [7], 96 % of control; (dose: 50.0 mg/kg/injection, schedule: Q01DX009 (ip), vehicle: water) 110 % of control; (dose: 75.0 mg/kg/injection, schedule: Q01DX009 (ip), vehicle: water) 110 % of control; under setting [8], 100 % of control. Moreover, the T/C runs as follows: (dose: 100.0 mg/kg/injection, schedule: Q01DX009 (ip), vehicle: water) 120 % of control; (dose: 125.0 mg/kg/injection, schedule: Q01DX009 (ip), vehicle: water) 120 % of control; under setting [9], 88 % of control.

Regarding `NC(Cc1c[nH]c2ccccc12)C(=O)O` (stereo unspecified), the T/C was 99 % of control (dose: 50.0 mg/kg/injection, schedule: Q01DX009 (ip), vehicle: Klucel (hydroxypropylcellulose) (HPC)); 107 % of control (dose: 100.0 mg/kg/injection, schedule: Q01DX009 (ip), vehicle: Klucel (hydroxypropylcellulose) (HPC)); 104 % of control (dose: 200.0 mg/kg/injection, schedule: Q01DX009 (ip), vehicle: Klucel (hydroxypropylcellulose) (HPC)).

As for `ClCC1CSC(c2ccccc2)O1` (stereo unspecified), the T/C reads like this: (dose: 50.0 mg/kg/injection, schedule: Q01DX009 (ip), vehicle: saline with Tween-80) 90 % of control; (dose: 100.0 mg/kg/injection, schedule: Q01DX009 (ip), vehicle: saline with Tween-80) 109 % of control; (dose: 200.0 mg/kg/injection, schedule: Q01DX009 (ip), vehicle: saline with Tween-80) 101 % of control.

As to `C=CCC1(OC(C)=O)CC2C(=O)C(=O)C(C1)N2OC(=O)c1ccccc1` (stereo unspecified), the T/C runs as follows: under setting [1], 100 % of control; under setting [2], 87 % of control; under setting [3], 94 % of control.

As to `Cc1cc(C)c(C#N)c(OCC2CCCO2)n1` (stereo unspecified), the T/C runs as follows: (dose: 50.0 mg/kg/injection, schedule: Q01DX005 (ip), vehicle: saline with Tween-80) 95 % of control; (dose: 100.0 mg/kg/injection, schedule: Q01DX005 (ip), vehicle: saline with Tween-80) 95 % of control.

On to `C[Si](C)(C)/N=C/O[Si](C)(C)C`, for which the T/C (dose: 60.0 mg/kg/injection, schedule: Q01DX005 (ip), vehicle: saline) is 100 % of control; the T/C (dose: 120.0 mg/kg/injection, schedule: Q01DX005 (ip), vehicle: saline) is 101 % of control; the T/C (dose: 240.0 mg/kg/injection, schedule: Q01DX005 (ip), vehicle: saline) was 108 % of control.

Turning to `CCn1c2ccccc2c2cc(N=C3C(=O)N(C)c4ccccc43)ccc21`, the T/C was 90 % of control (dose: 60.0 mg/kg/injection, schedule: Q01DX005 (ip), vehicle: Klucel (hydroxypropylcellulose) (HPC)); 92 % of control (dose: 120.0 mg/kg/injection, schedule: Q01DX005 (ip), vehicle: Klucel (hydroxypropylcellulose) (HPC)); 90 % of control (dose: 240.0 mg/kg/injection, schedule: Q01DX005 (ip), vehicle: Klucel (hydroxypropylcellulose) (HPC)).

With `C=Cc1cc(OC)c2c(c1)c(=O)oc1c2cc(OC)c2c(O)ccc(C3OC(C)C(O)C(C)(O)C3O)c21` (stereo unspecified), the T/C is 115 % of control (dose: 1.56 mg/kg/injection, schedule: Q01DX005 (ip), vehicle: DMSO); 118 % of control (dose: 3.12 mg/kg/injection, schedule: Q01DX005 (ip), vehicle: DMSO); 150 % of control (dose: 12.5 mg/kg/injection, schedule: Q01DX005 (ip), vehicle: DMSO); 150 % of control (dose: 25.0 mg/kg/injection, schedule: Q01DX005 (ip), vehicle: DMSO); 169 % of control (dose: 50.0 mg/kg/injection, schedule: Q01DX005 (ip), vehicle: DMSO).

For the compound `CC(=O)OCC12C(=O)CC(C)C3(CC(c4ccoc4)OC3=O)C1CCC(=O)C2(O)CCl` (stereo unspecified), the T/C is 96 % of control (dose: 0.75 mg/kg/injection, schedule: Q01DX005 (ip), vehicle: saline + alcohol); 106 % of control (dose: 1.5 mg/kg/injection, schedule: Q01DX005 (ip), vehicle: saline + alcohol); 103 % of control (dose: 3.0 mg/kg/injection, schedule: Q01DX005 (ip), vehicle: saline + alcohol); 108 % of control (dose: 6.0 mg/kg/injection, schedule: Q01DX005 (ip), vehicle: saline + alcohol); 106 % of control (dose: 12.0 mg/kg/injection, schedule: Q01DX005 (ip), vehicle: saline + alcohol); 90 % of control (dose: 12.5 mg/kg/injection, schedule: Q01DX005 (ip), vehicle: saline + Tween-80 + alcohol). Besides, the T/C by setting is: (dose: 25.0 mg/kg/injection, schedule: Q01DX005 (ip), vehicle: saline + Tween-80 + alcohol) 90 % of control; (dose: 50.0 mg/kg/injection, schedule: Q01DX005 (ip), vehicle: saline + Tween-80 + alcohol) 93 % of control; (dose: 150.0 mg/kg/injection, schedule: Q01DX005 (ip), vehicle: saline + Tween-80 + alcohol) 100 % of control.

For `CCCc1[nH]n(-c2ccccc2)c(=O)c1N=Nc1ccc(Cl)cc1`, the T/C reads like this: under setting [7], 96 % of control; under setting [8], 100 % of control; under setting [9], 101 % of control.

For `COC(=O)c1c(-c2cc(OC)c(OC)cc2[N+](=O)[O-])c(C=O)n(C)c1C`, the T/C runs as follows: (dose: 100.0 mg/kg/injection, schedule: Q01DX001 (ip), vehicle: saline with Tween-80) 100 % of control; (dose: 200.0 mg/kg/injection, schedule: Q01DX001 (ip), vehicle: saline with Tween-80) 99 % of control; (dose: 400.0 mg/kg/injection, schedule: Q01DX001 (ip), vehicle: saline with Tween-80) 91 % of control.

Take `COc1ccc2c(c1)-c1nn(CCO)c(-c3cccnc3)c1CC2`: the T/C (dose: 100.0 mg/kg/injection, schedule: Q04DX002 (ip), vehicle: DMSO) was 94 % of control and the T/C (dose: 200.0 mg/kg/injection, schedule: Q04DX002 (ip), vehicle: DMSO) was 102 % of control.

Take `O=C(CCCCCCCC(=O)NO)NO`: the T/C under setting [4] is 95 % of control, the T/C under setting [6] was 100 % of control and the T/C under setting [5] was 105 % of control.
